In ChEMBL document CHEMBL5370648, “Rational Design of Bioorthogonally Activatable PROTAC for Tumor-Targeted Protein Degradation” (J Med Chem, 2023):
The source made the active and inactive calls. The rule behind the calls is not given here.

What was measured:
[1] = Retention time of the compound by HPLC method; format: physicochemical
[2] = system: T47D; experiment: Cytotoxicity against human T47D cells assessed as inhbition of cell growth measured after 48 hrs by CCK-8 method; format: functional, cell-based
[3] = system: MDA-MB-231; experiment: Cytotoxicity against human MDA-MB-231 cells assessed as inhbition of cell growth measured after 48 hrs by CCK-8 method; format: functional, cell-based; details: MDA-MB-231, 48 h
[4] = system: MCF7; experiment: Cytotoxicity against human MCF7 cells assessed as inhbition of cell growth measured after 48 hrs by CCK-8 method; format: functional, cell-based; details: MCF7, 48 h
[5] = target: T1, von Hippel-Lindau disease tumor suppressor/Bromodomain-containing protein 4 (Homo sapiens, UniProt O60885+P40337); experiment: PROTAC activity at BRD4/VHL E3 ligase in human T47D cells assessed as decrease in BRD4 expression incubated for 48 hrs by Western blot analysis; format: cell-based
[6] = target: T1, von Hippel-Lindau disease tumor suppressor/Bromodomain-containing protein 4; experiment: PROTAC activity at BRD4/VHL E3 ligase in human MDA-MB-231 cells assessed as decrease in BRD4 expression incubated for 48 hrs by Western blot analysis; format: cell-based
[7] = target: T1, von Hippel-Lindau disease tumor suppressor/Bromodomain-containing protein 4; experiment: PROTAC activity at BRD4/VHL E3 ligase in human MCF7 cells assessed as decrease in BRD4 expression incubated for 48 hrs by Western blot analysis; format: cell-based
[8] = target: T1, von Hippel-Lindau disease tumor suppressor/Bromodomain-containing protein 4; experiment: PROTAC activity at BRD4/VHL E3 ligase in human T47D cells assessed as suppression of c-Myc expression incubated for 48 hrs by Western blot analysis; format: cell-based
[9] = target: T1, von Hippel-Lindau disease tumor suppressor/Bromodomain-containing protein 4; experiment: PROTAC activity at BRD4/VHL E3 ligase in human T47D cells assessed as induction of degradation of intracellular BRD4 at 200 nM incubated for 48 hrs by immunofluorescence staining assay; format: cell-based
[10] = target: T1, von Hippel-Lindau disease tumor suppressor/Bromodomain-containing protein 4; experiment: PROTAC activity at BRD4/VHL E3 ligase in human MDA-MB-231 cells assessed as induction of degradation of intracellular BRD4 at 200 nM incubated for 48 hrs by immunofluorescence staining assay; format: cell-based
[11] = target: T1, von Hippel-Lindau disease tumor suppressor/Bromodomain-containing protein 4; experiment: PROTAC activity at BRD4/VHL E3 ligase in human MCF7 cells assessed as induction of degradation of intracellular BRD4 at 200 nM incubated for 48 hrs by immunofluorescence staining assay; format: cell-based
[12] = target: T1, von Hippel-Lindau disease tumor suppressor/Bromodomain-containing protein 4; experiment: PROTAC activity at BRD4/VHL E3 ligase in human T47D cells assessed as induction of degradation of BRD4 at upto 1000 nM incubated for 48 hrs in presence of MG132 by immunofluorescence staining assay; format: cell-based
[13] = target: T1, von Hippel-Lindau disease tumor suppressor/Bromodomain-containing protein 4; experiment: PROTAC activity at BRD4/VHL E3 ligase in human T47D cells assessed as induction of degradation of BRD4 at upto 1000 nM incubated for 48 hrs in presence of MLN4924 by immunofluorescence staining assay; format: cell-based
[14] = target: T1, von Hippel-Lindau disease tumor suppressor/Bromodomain-containing protein 4; experiment: PROTAC activity at BRD4/VHL E3 ligase in human T47D cells assessed as degradation of BRD4 expression incubated for 48 hrs by Western blot analysis; format: cell-based
[15] = target: T1, von Hippel-Lindau disease tumor suppressor/Bromodomain-containing protein 4; experiment: PROTAC activity at BRD4/VHL E3 ligase in human MDA-MB-231 cells assessed as degradation of BRD4 expression incubated for 48 hrs by Western blot analysis; format: cell-based
[16] = target: T1, von Hippel-Lindau disease tumor suppressor/Bromodomain-containing protein 4; experiment: PROTAC activity at BRD4/VHL E3 ligase in human MCF7 cells assessed as degradation of BRD4 expression incubated for 48 hrs by Western blot analysis; format: cell-based
[17] = target: T1, von Hippel-Lindau disease tumor suppressor/Bromodomain-containing protein 4; experiment: PROTAC activity at BRD4/VHL E3 ligase in human MDA-MB-231 cells assessed as suppression of c-Myc expression incubated for 48 hrs by Western blot analysis; format: cell-based
[18] = target: T1, von Hippel-Lindau disease tumor suppressor/Bromodomain-containing protein 4; experiment: PROTAC activity at BRD4/VHL E3 ligase in human MCF7 cells assessed as suppression of c-Myc expression incubated for 48 hrs by Western blot analysis; format: cell-based
[19] = target: T1, von Hippel-Lindau disease tumor suppressor/Bromodomain-containing protein 4; experiment: PROTAC activity at BRD4/VHL E3 ligase in human T47D cells assessed as activation of caspase-3 expression incubated for 48 hrs by Western blot analysis; format: cell-based
[20] = target: T1, von Hippel-Lindau disease tumor suppressor/Bromodomain-containing protein 4; experiment: PROTAC activity at BRD4/VHL E3 ligase in human MDA-MB-231 cells assessed as activation of caspase-3 expression incubated for 48 hrs by Western blot analysis; format: cell-based
[21] = target: T1, von Hippel-Lindau disease tumor suppressor/Bromodomain-containing protein 4; experiment: PROTAC activity at BRD4/VHL E3 ligase in human MCF7 cells assessed as activation of caspase-3 expression incubated for 48 hrs by Western blot analysis; format: cell-based
[22] = system: MCF7; experiment: Antitumor activity against human MCF7 cells xenografted in BALB/c nude mouse assessed as tumor growth inhibition at 10 mg/kg measured after 16 days; format: functional, organism-based; details: time 16.0 day
[23] = system: MCF7; experiment: Antitumor activity against human MCF7 cells xenografted in BALB/c nude mouse assessed as fold increase in tumor volume at 10 mg/kg measured at day 23 post injection; format: functional; details: time 23 day
[24] = Toxicity in BALB/c nude mouse assessed as animal death at 10 mg/kg measured after 16 days; format: organism-based; details: in vivo, 384 h, time 16 day
[25] = system: MCF7; experiment: Antitumor activity against human MCF7 cells xenografted in BALB/c nude mouse model assessed as inhibition of tumor cell proliferation by measuring reduction in Ki67 staining at 10 mg/kg administered for 16 days by immunohistochemical analysis; format: functional, organism-based; details: time 16.0 day
[26] = target: T1, von Hippel-Lindau disease tumor suppressor/Bromodomain-containing protein 4; experiment: In vivo PROTAC activity at BRD4/VHL E3 ligase in BALB/c nude mouse xenografted with human MCF7 cells assessed as reduction in BRD4 protein level in tumor 10 mg/kg measured after 48 hrs by Western blot analysis; format: functional, organism-based
[27] = system: MCF7; experiment: Antitumor activity against human MCF7 cells xenografted in BALB/c nude mouse assessed as apoptosis at 10 mg/kg measured after 48 hrs by Western blot analysis; format: functional, organism-based
[28] = system: T47D; experiment: Cytotoxicity against human T47D cells assessed as inhbition of cell growth at 20.0 uM measured after 48 hrs by CCK-8 method; format: functional, cell-based
[29] = system: MDA-MB-231; experiment: Cytotoxicity against human MDA-MB-231 cells assessed as inhbition of cell growth at 20.0 uM measured after 48 hrs by CCK-8 method; format: functional, cell-based

T1 sequence (P40337 whole entry, looked up, other chains not shown): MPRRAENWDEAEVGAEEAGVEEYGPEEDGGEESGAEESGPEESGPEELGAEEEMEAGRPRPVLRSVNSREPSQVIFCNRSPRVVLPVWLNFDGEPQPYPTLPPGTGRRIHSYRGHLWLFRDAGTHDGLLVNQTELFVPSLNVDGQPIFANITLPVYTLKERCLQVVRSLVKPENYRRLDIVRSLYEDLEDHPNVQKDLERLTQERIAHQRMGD

Cc1ncsc1-c1ccc([C@H](C)NC(=O)[C@@H]2C[C@@H](O)CN2C(=O)[C@@H](NC(=O)COCCOCCOCCNC(=O)CC2N=C(c3ccc(Cl)cc3)c3c(sc(C)c3C)-n3c(C)nnc32)C(C)(C)C)cc1 (stereo not given in full)
Retention_time [1]: 18.96 min
IC50 [2]: 0.253 µM
IC50 [3]: 0.225 µM
IC50 [4]: 0.183 µM
EC50 [5]: 0.0566 µM
EC50 [6]: 0.00396 µM
EC50 [7]: 0.0503 µM
Activity [8]: Active
Activity [9]: Active
Activity [10]: Active
Activity [11]: Active
Activity [12]: inactive
Activity [13]: inactive
Activity [14]: Active
Activity [15]: Active
Activity [16]: Active
Activity [17]: Active
Activity [18]: Active
Activity [19]: Active
Activity [20]: Active
Activity [21]: Active
Activity [22]: Active
fold change (FC) [23]: 1.58
Activity [24]: Toxic
Activity [25]: Active
Activity [26]: Active
Activity [27]: Active

Cc1ncsc1-c1ccc([C@H](C)NC(=O)[C@@H]2C[C@@H](OC(=O)OC3/C=C/CCCCC3)CN2C(=O)[C@@H](NC(=O)COCCOCCOCCNC(=O)CC2N=C(c3ccc(Cl)cc3)c3c(sc(C)c3C)-n3c(C)nnc32)C(C)(C)C)cc1 (stereo not given in full)
Retention_time [1]: 19.3 min
Activity [28]: inactive
Activity [29]: inactive
